Laboratory results: patent publication US20240368668A1, “SUBSTRATES AND BIOMARKERS OF ADAMTS7” (The Broad Institute, Inc., priority 2021, published 2024)

Tested on: mouse ADAMTS7
Experiment: TMT10 TAILS N-terminomics, SMC1 experiment (Ad-mADAMTS7 WT vs EQ vs Luc, technical replicates, trypsin digest)
Format: cell-based
Conditions: TAILS neo-N-terminal peptide abundance; log fold change, Ad-mADAMTS7 WT over EQ
In short: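 Full-length mouse ADAMTS7 (WT or E373Q mutant, C-terminal 3xFLAG) or luciferase was transduced via adenovirus, 50 MOI, into HCA-SMC (SMC1, SMC2) or HUVEC. SMC1: pooled media, technical triplicates 400 ug; SMC2: process triplicates 300 ug; HUVEC: process triplicates 200 ug, bFGF2 10 ng/ml.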

Row | Substance | logFC.mWT.over.mEQ
1 | LTBP1_546 (HVYPVAAKTQLGR; listed as Homo sapiens) | 4.67
2 | LTBP2_485 (SVQIHQVAQVR; listed as Homo sapiens) | 2.23
3 | LTBP2_533 (SGEPPRPLPPAAPR; listed as Homo sapiens) | 1.06
4 | LTBP2_677 (SLGPGTCTLPLAQR; listed as Homo sapiens) | 0.85
5 | LTBP2_760 (SSGALPGPAER; listed as Homo sapiens) | 1.24
6 | LTBP2_1023 (GKCTNLEGSFR; listed as Homo sapiens) | 0.71
7 | LTBP2_1371 (SGQKGHAPCSSVLGR; listed as Homo sapiens) | 0.93
8 | LTBP2_1560 (TTYTECCCQDGEAWSQQCALCPPR; listed as Homo sapiens) | 0.71
9 | LTBP2_1584 (SSEVYAQLCNVAR; listed as Homo sapiens) | 1.08
